Experimental data reported in article PMC9416004, “A Versatile Class of 1,4,4-Trisubstituted Piperidines Block Coronavirus Replication In Vitro” (Pharmaceuticals, 2022).
Read-outs that look alike come from different tables or passages of the source.

Experiments:
[1] = in vitro; settings: human
[2] = test system: HCoV-229E; experiment: Cytopathic effect (CPE) reduction assay with HCoV-229E in HEL cells; assay type: cell-based, human coronavirus 229E; settings: for EC50: Human coronavirus 229E, 120 h, HCoV-229E-infected HEL cells, five days at 35 °C; for Selectivity Index Microscopy: ratio of MCC to EC50-microscopy; for Selectivity Index Microscopy / Selectivity Index MTS: only values of 10 or higher shown; for Selectivity Index MTS: ratio of CC50 to EC50-MTS
[3] = test system: human embryonic lung (HEL) fibroblast cells; settings: mock-infected HEL cells; microscopically visible alterations in cell morphology
[4] = protection against virus-induced CPE by MTS cell viability assay, read-out: Antiviral EC50 MTS
[5] = protection against virus-induced CPE by microscopic scoring, read-out: Antiviral EC50 Microscopy

Row | SMILES | CC50 [1] | EC50 [2, 4] | EC50 [2, 5] | Cytotoxicity MCC (minimal cytotoxic concentration) [3] | Selectivity Index Microscopy [2] | Selectivity Index MTS [2]
1 | CC(C)(C)OC(=O)N[C@@H](CC(=O)O)C(=O)N(Cc1ccccc1)C1(C(=O)NCc2ccccc2)CCN(Cc2ccccc2)CC1 [Compound 44] | > 100 µM | > 100 µM | > 100 µM | >100 µM |  | 
2 | COC(=O)C[C@H](NC(=O)OC(C)(C)C)C(=O)N(Cc1ccc(F)cc1)C1(C(=O)NCc2ccccc2)CCN(C2CCCCC2)CC1 [Compound 6] | 85 ± 9 µM | 14 ± 1 µM | 22 ± 9 µM | 100 µM |  | 
3 | COC(=O)C[C@H](NC(=O)OCC1c2ccccc2-c2ccccc21)C(=O)N(Cc1ccccc1)C1(C(=O)NCc2ccccc2)CCN(Cc2ccccc2)CC1 [Compound 35] | > 100 µM | 26 ± 9 µM | 36 ± 14 µM | >100 µM |  | 
4 | COC(=O)C[C@H](NC(=O)OCc1ccccc1)C(=O)N(C1CC1)C1(C(=O)NCc2ccccc2)CCN(Cc2ccccc2)CC1 [Compound 37] | 3.6 ± 0.1 µM | > 100 µM | 3 ± 0.1 µM | 11 µM |  | 
5 | COC(=O)C[C@H](NC(=O)OC(C)(C)C)C(=O)N(C1CC1)C1(C(=O)NCc2ccccc2)CCN(Cc2ccccc2)CC1 [Compound 21] | 14 ± 3 µM | > 100 µM | 12 ± 0.4 µM | 50 µM |  | 
6 | COC(=O)C[C@H](NC(=O)OC(C)(C)C)C(=O)N(Cc1ccc(F)cc1)C1(C(=O)NCc2ccccc2)CCN(CCc2ccccc2)CC1 [Compound 11] | 38 ± 2 µM | 4.4 ± 0.8 µM | 3.2 ± 0.1 µM | 100 µM | 31 | 
7 | COC(=O)CCC(=O)N(Cc1ccc(F)cc1)C1(C(=O)NCc2ccccc2)CCN(Cc2ccccc2)CC1 [Compound 30] | 64 ± 3 µM | 13 ± 2 µM | 13 µM | 100 µM |  | 
8 | COC(=O)C[C@H](NC(=O)OC(C)(C)C)C(=O)N(Cc1ccc(F)c(F)c1)C1(C(=O)NCc2ccccc2)CCN(Cc2ccccc2)CC1 [Compound 28] | 23 ± 11 µM | 3.7 ± 1 µM | 6 ± 2.6 µM | 44 µM |  | 
9 | CC(C)(C)OC(=O)N[C@@H](CC(=O)O)C(=O)N(Cc1ccc(F)cc1)C1(C(=O)NCc2ccccc2)CCN(Cc2ccccc2)CC1 [Compound 43] | > 100 µM | > 100 µM | > 100 µM | >100 µM |  | 
10 | CC(C)(C)OC(=O)N[C@@H](Cc1ccc(F)cc1)C(=O)N(Cc1ccccc1)C1(C(=O)NCc2ccccc2)CCN(Cc2ccccc2)CC1 [Compound 49, Tert-butyl(S)-(1-(benzyl(1-benzyl-4-benzylcarbamoylpiperidin-4-yl)amino)-3-(4-fluorophenyl)-1-oxopropan-2-yl)carbamate] | > 100 µM | 8.4 µM | 10 µM | ≥100 µM | ≥10 | >12
11 | CC(C)(C)OC(=O)N[C@@H](Cc1c[nH]c2ccccc12)C(=O)N(Cc1ccccc1)C1(C(=O)NCc2ccccc2)CCN(Cc2ccccc2)CC1 [Compound 47] | > 100 µM | 49 ± 12 µM | 57 ± 17 µM | >100 µM |  | 
12 | COC(=O)C[C@H](NC(=O)OC(C)(C)C)C(=O)N(Cc1ccc(F)cc1)C1(C(=O)NCc2ccccc2)CCN(Cc2ccccc2)CC1 [Compound 2] | 44 ± 8 µM | 7.4 ± 2.5 µM | 7.8 ± 2.7 µM | 100 µM | 13 | 6
13 | COC(=O)C[C@H](NC(=O)OC(C)(C)C)C(=O)N(CCNc1ccccc1)C1(C(=O)NCc2ccccc2)CCN(Cc2ccccc2)CC1 [Compound 29] | 36 ± 9 µM | 3.2 ± 0.4 µM | 3 ± 0.1 µM | 75 µM | 25 | 11
14 | COC(=O)CC[C@H](NC(=O)OC(C)(C)C)C(=O)N(Cc1ccc(F)cc1)C1(C(=O)NCc2ccccc2)CCN(Cc2ccccc2)CC1 [Compound 40] | 50 ± 3 µM | 11 ± 4 µM | 4.8 ± 1.7 µM | 100 µM | 21 | 
15 | COc1ccc(CC(NC(=O)OC(C)(C)C)C(=O)N(Cc2ccccc2)C2(C(=O)NCc3ccccc3)CCN(Cc3ccccc3)CC2)cc1 (centres unmarked) [Compound 51, Tert-butyl(1-(benzyl(1-benzyl-4-benzylcarbamoylpiperidin-4-yl)amino)-3-(4-methoxyphenyl)-1-oxopropan-2-yl)carbamate] | > 100 µM | 4.8 ± 0.4 µM | 8.2 ± 1.9 µM | ≥100 µM | ≥12 | 
16 | COC(=O)C[C@H](NC(=O)OC(C)(C)C)C(=O)N(C)C1(C(=O)NCc2ccccc2)CCN(Cc2ccccc2)CC1 [Compound 19] | 18 ± 2 µM | > 100 µM | 14 ± 1 µM | 100 µM |  | 
17 | CC(C)(C)OC(=O)N[C@@H](CC(N)=O)C(=O)N(Cc1ccc(F)cc1)C1(C(=O)NCc2ccccc2)CCN(Cc2ccccc2)CC1 [Compound 41] | 82 ± 13 µM | 64 ± 8 µM | 54 ± 4 µM | >100 µM |  | 
18 | COC(=O)C[C@H](NC(=O)OCc1ccccc1)C(=O)N(CCNc1ccccc1)C1(C(=O)NCc2ccccc2)CCN(CCc2ccccc2)CC1 [Compound 58, Methyl(S)-4-((4-benzylcarbamoyl-1-phenethylpiperidin-4-yl)(2-(phenylamino)ethyl)amino)-3-benzyloxycarbonylamino-4-oxobutanoate] | 20 ± 4 µM | 5.4 ± 1.4 µM | 7.9 ± 1.9 µM | 24 µM |  | 
19 | COC(=O)C[C@H](NC(=O)OC(C)(C)C)C(=O)N(Cc1ccccc1F)C1(C(=O)NCc2ccccc2)CCN(Cc2ccccc2)CC1 [Compound 26] | 44 ± 1 µM | 15 ± 2 µM | 12 ± 1 µM | 100 µM |  | 
20 | COC(=O)C[C@H](NC(=O)OC(C)(C)C)C(=O)N(Cc1ccc(F)cc1)C1(C(=O)NCc2ccccc2)CCN(Cc2cc(F)cc(F)c2)CC1 [Compound 10] | 10 ± 2 µM | > 100 µM | 15 ± 1 µM | 70 µM |  | 
21 | COC(=O)C[C@H](NC(=O)OC(C)(C)C)C(=O)NC1(C(=O)NCc2ccccc2)CCN(Cc2ccccc2)CC1 [Compound 18] | 48 ± 8 µM | > 100 µM | 55 ± 16 µM | ≥100 µM |  | 
22 | COC(=O)C[C@H](NC(=O)OCc1ccccc1)C(=O)N(Cc1ccccc1)C1(C(=O)NCc2ccccc2)CCN(CCc2ccc(C)cc2)CC1 [Compound 54, Methyl(S)-4-(benzyl(4-benzylcarbamoyl-1-(4-methylphenethyl)piperidin-4-yl)amino)-3-benzyloxycarbonylamino-4-oxobutanoate] | 24 ± 2 µM | 8.4 ± 0.5 µM | 10 µM | 40 µM |  | 
23 | CCC(C)N(C(=O)[C@H](CC(=O)OC)NC(=O)OCc1ccccc1)C1(C(=O)NCc2ccccc2)CCN(Cc2ccccc2)CC1 (some centres unmarked) [Compound 36] | 27 ± 1 µM | 6.2 ± 0.8 µM | 9.2 ± 0.5 µM | 40 µM |  | 
24 | COC(=O)C[C@H](NC(=O)OC(C)(C)C)C(=O)N(Cc1ccc(F)cc1)C1(C(=O)NCc2ccccc2)CC[N+](C)(Cc2ccccc2)CC1 (some centres unmarked) [Compound 8] | > 100 µM | > 100 µM | > 100 µM | >100 µM |  | 
25 | COC(=O)C[C@H](NC(=O)OC(C)(C)C)C(=O)N(Cc1ccc(F)cc1)C1(C(=O)NCc2ccccc2)CCN(c2ccccc2)CC1 [Compound 7] | > 100 µM | > 100 µM | 43 ± 3 µM | >100 µM |  | 
26 | COC(=O)C[C@H](NC(=O)OCc1ccccc1)C(=O)N(Cc1ccccc1)C1(C(=O)NCc2ccccc2)CCN(CCc2ccc([N+](=O)[O-])cc2)CC1 [Compound 55, Methyl(S)-4-(benzyl(4-benzylcarbamoyl-1-(4-nitrophenethyl)piperidin-4-yl)amino)-3-benzyloxycarbonylamino-4-oxobutanoate] | > 100 µM | 7.7 ± 0.9 µM | 10 µM | 60 µM |  | >13
27 | COC(=O)C[C@H](NC(=O)OCc1ccccc1)C(=O)N(Cc1ccccc1)C1(C(=O)NCc2ccccc2)CCN(CCc2ccccc2)CC1 [Compound 53, Methyl(S)-4-(benzyl(4-benzylcarbamoyl-1-phenethylpiperidin-4-yl)amino)-3-benzyloxycarbonylamino-4-oxobutanoate] | 24 ± 2 µM | 5.8 ± 1.9 µM | 6.1 ± 2 µM | 40 µM |  | 
28 | CC(C)(C)OC(=O)NC(Cc1ccc(Cl)cc1)C(=O)N(Cc1ccccc1)C1(C(=O)NCc2ccccc2)CCN(Cc2ccccc2)CC1 (centres unmarked) [Compound 50, Tert-butyl(1-(benzyl(1-benzyl-4-benzylcarbamoylpiperidin-4-yl)amino)-3-(4-chlorophenyl)-1-oxopropan-2-yl)carbamate] | > 100 µM | 9.7 ± 0.4 µM | 10 µM | ≥100 µM | ≥10 | ≥10
29 | COc1ccc(CN2CCC(C(=O)NCc3ccccc3)(N(Cc3ccccc3)C(=O)C(Cc3ccccc3)NC(=O)OC(C)(C)C)CC2)cc1 (centres unmarked) [Compound 62, Tert-butyl(1-(benzyl(4-benzylcarbamoyl-1-(4-methoxybenzyl)piperidin-4-yl)amino)-1-oxo-3-phenylpropan-2-yl)carbamate] | 28 µM | 4.3 ± 0.4 µM | 5.9 ± 1.8 µM | 40 µM |  | 
